The target of data set [1] is T1, NEP (Homo sapiens, UniProt P08473). Description: Neprilysin inhibition assay (degradation of 1 after preincubation with peptide). The format is biochemical. More on the design: purchased Sino Biological. The following applies: preincubation of NEP with equimolar peptide. The protocol: This experiment investigates the ability of synthetic peptides 8-19 to inhibit the inherent proteolytic activity of NEP.
Assays were performed in duplicate (n=2) for each time point.

Data set [2] in a line: in vitro. The settings on record: human, plasma.
Data set [3] deals with T2, wild-type rat apelin receptor (Rattus norvegicus, UniProt Q9JHG3).
T2 construct: expressed in transfected cells
T2 sequence (Q9JHG3 1-377): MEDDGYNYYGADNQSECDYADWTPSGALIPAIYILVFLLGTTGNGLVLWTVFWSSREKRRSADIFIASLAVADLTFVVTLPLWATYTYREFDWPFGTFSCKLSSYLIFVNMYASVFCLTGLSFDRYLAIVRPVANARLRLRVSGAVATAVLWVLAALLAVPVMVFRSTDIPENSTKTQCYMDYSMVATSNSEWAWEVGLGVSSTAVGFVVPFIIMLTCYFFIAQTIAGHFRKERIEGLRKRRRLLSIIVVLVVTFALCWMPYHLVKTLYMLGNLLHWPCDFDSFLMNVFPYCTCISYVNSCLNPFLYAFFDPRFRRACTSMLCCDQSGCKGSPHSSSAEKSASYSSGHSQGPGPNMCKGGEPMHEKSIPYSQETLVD
Nature of the data set: Radioligand binding, displacement of [125I]-pyr-1-apelin-13 on CHO cell membranes. The procedure, abridged:
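Membranes (1 μg) from CHO cells stably expressing rat apelin receptor-EGFP incubated 3 h at 20 °C with 0.2 nM [125I]-pyr-1-apelin-13 and varying peptide concentrations in 50 mM HEPES, 5 mM MgCl2, 1% BSA, pH 7.5. Bound radioactivity measured by filtration and gamma counting.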
A general note: In a radioligand displacement assay an active substance lowers the binding of a labelled ligand.

In data set [4] the test system is isolated rat hearts. Nature of the data set: Langendorff isolated heart, ischemia-reperfusion injury. The following applies: ex vivo heart, 30 min ischemia. The protocol:
The ex vivo heart was assessed for a variety of parameters (heart rate (HR); left ventricle developed pressure (LVDP); maximum derivative of change in systolic pressure over time (max dP/dt); minimum derivative of change in diastolic pressure over time (min dP/dt); and rate-pressure product (RPP)) indicative of general heart function and performance (FIG. 11).
Langendorff heart perfusion and ischemia-reperfusion injury were prepared and cardiac function was measured. Mice were heparinized and anaesthetized with 1.5-2% isoflurane inhalation. The heart was excised, mounted on a Langendorff system, and perfused at a consistent pressure of 80 mmHg with modified Krebs-Henseleit solution (116 mM NaCl, 3.2 mM KCl, 2.0 mM CaCl2), 1.2 mM MgSO4, 25 mM NaHCO3, 1.2 mM KH2PO4, 11 mM glucose, 0.5 mM EDTA and 2 mM pyruvate), which was kept at 37° C. and continuously oxygenated with 95% O2 and 5% CO2 which maintained the perfusion buffer at pH 7.4. After stabilization and 10 min baseline recording, global ischemia was induced for 30 min followed by 40 min of reperfusion. Apelin 17 (2) or apelin peptides (11, 17, 18, or 19) were given at the start of reperfusion for 10 min at a concentration of 1 pM. Left ventricular functions were obtained continuously by PowerLab system (ADInstruments, Australia). Data was reported as mean value of every 5 min. Left ventricular functions were reported as: Left Ventricular Developed Pressure (LVDP); Heart rate (HR); maximum derivative of change in systolic pressure over time (max dP/dt); minimum derivative of change in diastolic pressure over time (min dP/dt); and Rate Pressure Product (RPP).

Data set [5] relates to anesthetized mice. Description: Blood pressure assay in anesthetized mice. The format is in vivo. The settings on record: 1.4 μM/kg body weight injected, SBP, DBP, MABP. The protocol: Synthetic peptides 8-19 were tested for blood pressure lowering abilities in anesthetized mice. Apelin peptides were injected through […], monitoring blood pressure (BP) and heart rate (HR) over 60 minutes.
Mice were anaesthetized with 1.5% isoflurane/oxygen, and body temperature was monitored and maintained at 36° C. by a heating pad. The aorta was cannulated via the right carotid artery using a PV loop catheter (Model 1.2F from Scisense, Transonic) in order to continuously record arterial blood pressure and heart rate (LabScribe 2.0, Scisense). […] Results are reported as systolic blood pressure (SBP), diastolic blood pressure (DBP), mean arterial blood pressure (MABP) and heart rate (HR).
Apelin peptides 11, 56-59 as well as the KLKB1-cleavage fragments 54 and 55 were tested for blood pressure lowering abilities in anesthetized mice.
Mice were anesthetized with 1.5% isoflurane/oxygen, and body temperature was monitored and maintained at 36° C. by a heating pad. The aorta was cannulated via the right carotid artery using a PV loop catheter (model 1.2F from Scisense, Transonic) in order to continuously record arterial blood pressure and heart rate (LabScribe 2.0, Scisense). Compounds 11, and 54-59 or 55-59 (1.4 μM/kg body weight) or the same volume of saline was injected via the right jugular vein. Results are reported as systolic blood pressure (SBP), diastolic blood pressure (DBP), mean arterial blood pressure (MABP), and heart rate (HR) shown in FIGS. 15A-D.
Apelin peptides were delivered systemically via the right internal jugular vein while blood pressure (BP) and heart rate (HR) were continuously monitored in the aorta cannulated via the right carotid artery. All N-terminally extended apelin peptides, except 58, show pronounced and time-stable blood pressure lowering effects (FIGS. 15a-d). […] This correlates with the results obtained from the Ca^2+ mobilization assay.

In data set [6] the test system is recombinant human neprilysin (rhNEP, Sino Biological). Description: rhNEP diluted in Tris buffer (100 mM Tris, 100 mM NaCl, 10 μM ZnCl2, pH 7.5), 3.1 nM final concentration. The following applies: 37° C., up to 72 h.
Data set [7] relates to KLKB1 (rhKLKB1, Novoprotein). Description: Human plasma kallikrein KLKB1 in Tris buffer, KLKB1 concentration of 2 ng/pL. The following applies: 37° C., up to 48 hours.
The subject of data set [8] is Angiotensin converting enzyme 2 (ACE2). Nature of the data set: in vitro and in vivo. The following applies: cited from earlier work.
The target of data set [9] is T1, NEP. Description: Neprilysin degradation assay (LC-MS, quantitative). The settings on record: rhNEP, 37° C., up to 72 h, LC-MS. The protocol:
This experiment compared the in vitro NEP stability of the Arg/Leu peptides of the embodiments to native apelin isoforms and their A2 substituted counterparts. Peptides were incubated with recombinant human NEP (rhNEP, Sino Biological) at 37° C. for up to 72 h, and the extent of degradation was analyzed via LC-MS because of the overlapping elution patterns of peptide fragments. […] (McKinnie, S. M. K., et al. ChemBioChem: 17, 1495-1498 (2016)). […] (Dion, N., et al., Biochem. J.: 311, 623-627 (1995); Bateman Jr., R. C., et al., J. Biol. Chem.: 264, 6151-6157 (1989); McMurray, J. J. et al., J. Med.: 371, 993-1004 (2014)).
Apelin peptides were dissolved in Milli-Q water (1 mM). Recombinant human neprilysin (rhNEP, Sino Biological) was reconstituted in Tris buffer (100 mM Tris, 100 mM NaCl, 10 μM ZnCl2, pH 7.5). To initiate the assay, rhNEP was diluted in Tris buffer (3.1 nM final concentration), and preincubated at 37° C. for 10 minutes prior to the addition of 5 μL of apelin peptide (1 mM) and 1.5 μL internal standard dansyl-Tyr-Val-Gly-OH (1 mM). Aliquots (10 μL) were removed at 0, 1, 4, 24, and 72 h, quenched with 0.1 M EDTA (10 μL), diluted to 100 μL with Milli-Q water and analyzed by LC-MS. Assays were performed in triplicate (n=3) for each time point. Integrated peak areas of the parent apelin peptide and internal standard derived from LC-MS analyses, were extracted using Mass Hunter software (version B.04.00) and compared in positive extracted ion count modus (+EIC, extracted-ion chromatogram). […] (apelin:dansyl-YVG), to the same ratio at the different assay time points. The decrease in apelin:dansyl-YVG ratio was converted to a percentage of cleaved peptide over time.
The extent of degradation was analyzed via LC-MS because of the overlapping elution patterns of peptide fragments (NEP).
Native apelin-17 (2) and apelin peptides 5, 54, 56, 57, 58 and 59 were dissolved in Milli-Q water (1 mM). Recombinant human neprilysin (rhNEP, Sino Biological) was reconstituted in Tris buffer (100 mM Tris, 100 mM NaCl, 10 μM ZnCl2, pH 7.5). To initiate the assay, rhNEP was diluted in Tris buffer (3.1 nM final concentration) and preincubated at 37° C. for 10 min prior to the addition of 5 μL of apelin peptide (1 mM) and 1.5 μL of internal standard dansyl-Tyr-Val-Gly-OH (1 mM). Aliquots (10 μL) were removed at 0, 1, 4, 24, and 72 h, quenched with 0.1 M EDTA (10 μL), diluted to 100 μL with Milli-Q water, and analyzed by LC-MS. Assays were performed in triplicate (n=3) for each time point. Integrated peak areas of the parent apelin peptide and internal standard derived from LC-MS analyses were extracted using Mass Hunter software (version B.04.00) and compared in positive extracted ion count modus (+EIC). The extent of proteolysis was determined by comparing the initial (0 h) ratio of the integrated extracted ions of the parent apelin peptide to the internal dansyl-YVG standard (apelin/dansyl-YVG) to the same ratio at the different assay time points. The decrease in apelin/dansyl-YVG ratio was converted to a percentage of cleaved peptide over time.

*1 amine or outer side, *2 acyl side, *3 side chain or, on linkers, in order; H or OH if unused. Where a SMILES comes first, the peptide text is derived from it. [ ]: non-standard residue; d: D form. Phe(4-Br) = N[C@@H](Cc1ccc(Br)cc1)C(=O)O; X1 = N=C(N)NCCCN(N[*:1])C(=O)[*:2]; Nle = CCCC[C@H](N)C(=O)O; Aib = CC(C)(N)C(=O)O

Usually share remaining stands for the share of the starting amount still present when the sample was taken. For orientation: Ki means the equilibrium dissociation constant of an inhibitor or competing ligand from its target.

T1 sequence (P08473 whole entry): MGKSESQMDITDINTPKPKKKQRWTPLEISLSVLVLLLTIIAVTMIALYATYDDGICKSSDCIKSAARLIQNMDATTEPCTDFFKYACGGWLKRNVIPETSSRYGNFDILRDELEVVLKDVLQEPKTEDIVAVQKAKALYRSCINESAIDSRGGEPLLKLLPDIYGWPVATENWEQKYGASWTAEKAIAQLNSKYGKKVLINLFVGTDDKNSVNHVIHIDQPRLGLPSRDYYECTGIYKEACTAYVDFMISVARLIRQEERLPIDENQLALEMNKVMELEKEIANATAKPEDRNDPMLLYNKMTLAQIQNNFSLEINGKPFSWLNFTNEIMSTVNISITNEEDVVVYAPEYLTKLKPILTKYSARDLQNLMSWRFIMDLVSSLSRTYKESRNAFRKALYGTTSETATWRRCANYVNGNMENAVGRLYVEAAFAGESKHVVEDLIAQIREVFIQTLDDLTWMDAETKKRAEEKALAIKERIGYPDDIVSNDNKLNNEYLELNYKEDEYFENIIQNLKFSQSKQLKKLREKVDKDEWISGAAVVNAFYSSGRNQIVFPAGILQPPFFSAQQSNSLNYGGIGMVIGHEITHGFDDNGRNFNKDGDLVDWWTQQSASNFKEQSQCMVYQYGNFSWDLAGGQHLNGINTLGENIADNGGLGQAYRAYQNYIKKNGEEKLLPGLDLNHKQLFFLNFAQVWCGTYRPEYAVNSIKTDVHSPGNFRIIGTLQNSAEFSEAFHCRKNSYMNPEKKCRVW

Turning to `CCCC[C@H](NC(=O)[C@@H]1CCCN1C(=O)CNC(=O)[C@H](CCCCN)NC(=O)[C@H](Cc1c[nH]cn1)NC(=O)[C@H](CO)NC(=O)[C@H](CC(C)C)NC(=O)N(CCCNC(=N)N)NC(=O)[C@@H]1CCCN1C(=O)[C@H](CCCNC(=N)N)NC(=O)[C@H](CCC(N)=O)NC(=O)[C@H](CCCNC(=N)N)NC(=O)[C@H](CCCNC(=N)N)NC(=O)[C@H](Cc1ccccc1)NC(=O)[C@@H](N)CCCCN)C(=O)NC(C)(C)C(=O)N[C@@H](Cc1ccc(Br)cc1)C(=O)O` [Peptide 17, Lys-Phe-Arg-Arg-Gln-Arg-Pro-azaArg-Leu-Ser-His-Lys-Gly-Pro-Nle-Aib-paraBrPhe] (H-KFRRQRP[X1]LSHKGP[Nle][Aib][Phe(4-Br)]-OH; N-terminus and C-terminus assumed), the “inhibition of the proteolytic activity of NEP” value in [1] is given as “no ability to inhibit the inherent activity of NEP”. In [2], this molecule returned an amount remaining at 0.5 h, 80 µM of 96 ± 6% and an amount remaining at 1 h, 80 µM of 94 ± 3%. Moreover, in data set [3] (displacement of [125I]-pyr-1-apelin-13 (0.2 nM), CHO membranes, rat apelin receptor-EGFP, means ± SE, read-out: Affinity Ki), the Ki was 0.14 ± 0.009 nM. The “receptor binding affinity (in words)” value in data set [3] (rat apelin receptor) is recorded as “sub-nanomolar receptor affinities”. In addition, in [4] (peptide at start of reperfusion for 10 min at 1 pM), the “ability to rescue the heart from ischemic reperfusion injury” value was “equivalent ability to rescue the heart from ischemic reperfusion injury compared to native isoform 2”. In addition, the “max/min dP/dt, LVDP and RPP compared to native isoform 2” value in [4] (reperfusion) is listed as “behaving very analogously to 2”. In data set [5], the “blood pressure lowering (hypotensive) effect” value is “potent hypotensive activity that rivaled or bested that of native 2 or A2 variant 5”.

Consider “Lys-Phe-Arg-Arg-Gln-Arg-Pro-Arg-NMeLeu-Ser-His-Lys-Gly-Pro-Nle-Aib-paraBrPhe”, for which the cleaved bond result is recorded as “Nle15-Aib16, minor” in data set [6] and “Arg3-Arg4” in data set [7].

Regarding (Pyr)RPRLSHKGPMPF, in data set [8], the cleaved bond entry is listed as “Pro-Phe”. In addition, in data set [6], the not cleaved result is recorded as “C-terminal dipeptide excision was not observed”.

Regarding LVQPRGSRNGPGPWQGGRRKFRR-QRPRLSHKGPMPF, in data set [8], the cleaved bond result was “Pro-Phe”.

Take `CSCC[C@H](NC(=O)[C@@H]1CCCN1C(=O)CNC(=O)[C@H](CCCCN)NC(=O)[C@H](Cc1cnc[nH]1)NC(=O)[C@H](CO)NC(=O)[C@H](CC(C)C)NC(=O)[C@H](CCCNC(=N)N)NC(=O)[C@@H]1CCCN1C(=O)[C@H](CCCNC(=N)N)NC(=O)[C@@H]1CCC(=O)N1)C(=O)N1CCC[C@H]1C(=O)N[C@@H](Cc1ccccc1)C(=O)O` [Peptide 1, reference compound]: in data set [9], the “in vitro NEP proteolytic stability (in words)” value is “degraded by NEP at rates comparable to those previously reported”.

For KFRRQRPRLSHKGPMPF, the cleaved bond entry in [8] was “Pro-Phe”; in [7], “Arg3-Arg4, <30 min”. In data set [6], the not cleaved result is reported as “C-terminal dipeptide excision was not observed”.
